In assay [1] the target is T1, Coagulation factor IX (Homo sapiens, UniProt P00740). The experiment in a line: Inhibition of factor 9a (unknown origin) binding to immobilized biotinylated oHG-11 assessed as activity potency of oligosaccharides multiplied by the percentage of oligosaccharides in dHG-5 by biolayer interferometry relative to dHG-5. Background: In BLI a coated tip is dipped into the sample, and binding shifts an interference pattern.

For assay [2], the target named is Prothrombin (Homo sapiens) (UniProt P00734). Put plainly: Inhibition of factor 2a (unknown origin) at IC90 preincubated for 1 min followed by chromogenic substrate addition and measured for 2 mins in presence of AT-III. Particulars: time 3.0 min.
In assay [3] the target is Coagulation factor X (Homo sapiens) (UniProt P00742). Put plainly: Inhibition of factor 10a (unknown origin) at IC90 preincubated for 1 min followed by chromogenic substrate addition and measured for 2 mins in presence of AT-III relative to control. As to conditions: time 3.0 min.
Sequence of Coagulation factor X (Homo sapiens) (P00742 41-179 limits assumed): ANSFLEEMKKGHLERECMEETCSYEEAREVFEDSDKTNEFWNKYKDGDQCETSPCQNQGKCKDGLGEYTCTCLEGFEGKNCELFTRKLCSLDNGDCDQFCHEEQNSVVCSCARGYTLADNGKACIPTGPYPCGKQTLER
Sequence of Coagulation factor X (Homo sapiens) (P00742 235-488 limits assumed): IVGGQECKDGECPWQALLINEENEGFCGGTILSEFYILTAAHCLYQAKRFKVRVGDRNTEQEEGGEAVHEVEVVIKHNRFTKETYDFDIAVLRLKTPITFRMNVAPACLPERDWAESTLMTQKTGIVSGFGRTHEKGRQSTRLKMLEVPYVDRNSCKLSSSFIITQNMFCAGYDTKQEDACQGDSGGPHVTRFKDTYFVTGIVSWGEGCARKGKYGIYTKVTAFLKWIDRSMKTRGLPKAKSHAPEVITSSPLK
Assay [4] addresses T2, Coagulation factor IX/VIII (Homo sapiens) (UniProt P00740+P00451). Put plainly: Inhibition of human citrated plasma iXase (factor 8a-factor 9a complex) assessed as activity potency of oligosaccharides multiplied by the percentage of oligosaccharides in dHG-5 preincubated for 2 mins followed by factor 10 addition and measured after 1 min by FXa chromogenic substrate SXa-11 based assay relative to dHG-5. In kind it is protein-complex assay. Particulars: time 3.0 min.

Assay [5] concerns the target T3, Coagulation factor VII (Homo sapiens) (UniProt P08709).
T3 sequence (whole entry): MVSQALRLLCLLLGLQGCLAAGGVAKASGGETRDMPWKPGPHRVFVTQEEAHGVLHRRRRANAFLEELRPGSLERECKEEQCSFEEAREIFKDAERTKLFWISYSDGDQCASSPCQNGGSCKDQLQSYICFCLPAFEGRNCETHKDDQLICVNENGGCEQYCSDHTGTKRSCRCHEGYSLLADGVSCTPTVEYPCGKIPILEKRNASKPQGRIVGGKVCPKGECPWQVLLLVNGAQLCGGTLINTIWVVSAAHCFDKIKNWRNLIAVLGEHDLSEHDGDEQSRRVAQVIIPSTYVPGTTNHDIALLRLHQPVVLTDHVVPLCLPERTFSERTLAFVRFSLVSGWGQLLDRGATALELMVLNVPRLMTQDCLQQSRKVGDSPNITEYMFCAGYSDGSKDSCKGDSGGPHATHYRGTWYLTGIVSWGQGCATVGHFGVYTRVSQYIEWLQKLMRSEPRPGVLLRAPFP
Put plainly: Inhibition of factor 7a (unknown origin) at IC50 using pefachrome factor VIIa as substrate preincubated for 1 min followed by chromogenic substrate addition and measured for 2 mins in presence of AT-III. As to conditions: time 3.0 min.

For assay [6], the target named is Prothrombin (Homo sapiens) (UniProt P00734). The experiment in a line: Inhibition of factor 2a (unknown origin) at IC50 preincubated for 1 min followed by chromogenic substrate addition and measured for 2 mins in presence of AT-III. As to conditions: time 3.0 min.
For assay [7], the target named is T2, Coagulation factor IX/VIII (Homo sapiens). The experiment in a line: Inhibition of human citrated plasma iXase (factor 8a-factor 9a complex) preincubated for 2 mins followed by factor 10 addition and measured after 1 min by FXa chromogenic substrate SXa-11 based assay relative to dHG-5. Type of assay: protein-complex assay. As to conditions: time 3.0 min.
Assay [8] deals with Rattus norvegicus. The experiment in a line: Antithrombotic activity in thromboplastin and stasis-induced Sprague-Dawley rat deep venous thrombosis model assessed as reduction in venous thrombosis by measuring activity potency of oligosaccharides multiplied by the percentage of oligosaccharides in dHG-5 at 1.84 mg/kg, sc administered 1 hr prior to thromboplastin addition for 20 secs followed by establishment of stasis for 20 mins relative to dHG-5. Type of assay: functional. Particulars: time 80.33 min, 1.339 h.

Assay [9] deals with T1, Coagulation factor IX. Put plainly: Inhibition of factor 9a (unknown origin) binding to immobilized biotinylated oHG-11 by biolayer interferometry relative to dHG-5.
In assay [10] the target is Prothrombin (Homo sapiens) (UniProt P00734). The experiment in a line: Inhibition of factor 2a (unknown origin) at IC50 preincubated for 1 min followed by chromogenic substrate addition and measured for 2 mins. Particulars: time 3.0 min.
Assay [11] addresses Coagulation factor XI (Homo sapiens) (UniProt P03951). Put plainly: Inhibition of factor 11a (unknown origin) at IC90 using S-2366 as substrate preincubated for 1 min followed by chromogenic substrate addition and measured for 2 mins in presence of AT-III. Particulars: time 3.0 min.
In assay [12] the test system is Rattus norvegicus. The experiment in a line: Antithrombotic activity in thromboplastin and stasis-induced Sprague-Dawley rat deep venous thrombosis model assessed as reduction in venous thrombosis at 1.84 mg/kg, sc administered 1 hr prior to thromboplastin addition for 20 secs followed by establishment of stasis for 20 mins relative to dHG-5. In kind it is functional. As to conditions: time 80.33 min, 1.339 h.

Assay [13] concerns the target Coagulation factor X (Homo sapiens) (UniProt P00742). Put plainly: Inhibition of factor 10a (unknown origin) at IC50 preincubated for 1 min followed by chromogenic substrate addition and measured for 2 mins. Particulars: time 3.0 min.
Assay [14] deals with T3, Coagulation factor VII (Homo sapiens). The experiment in a line: Inhibition of factor 7a (unknown origin) at IC50 using pefachrome factor VIIa as substrate preincubated for 1 min followed by chromogenic substrate addition and measured for 2 mins. As to conditions: time 3.0 min.
For assay [15], the system named is Plasma. Put plainly: Anticoagulation activity in human plasma assessed as drug level causing 20 times doubling of APTT by measuring activity potency of oligosaccharides multiplied by the percentage of oligosaccharides in dHG-5 preincubated for 2 mins followed by APTT reagent and measured after 3 mins by coagulometric method relative to dHG-5. In kind it is functional. As to conditions: time 5 min.

Assay [16] has as its target T4, Coagulation factor XII (Homo sapiens) (UniProt P00748).
T4 sequence (whole entry): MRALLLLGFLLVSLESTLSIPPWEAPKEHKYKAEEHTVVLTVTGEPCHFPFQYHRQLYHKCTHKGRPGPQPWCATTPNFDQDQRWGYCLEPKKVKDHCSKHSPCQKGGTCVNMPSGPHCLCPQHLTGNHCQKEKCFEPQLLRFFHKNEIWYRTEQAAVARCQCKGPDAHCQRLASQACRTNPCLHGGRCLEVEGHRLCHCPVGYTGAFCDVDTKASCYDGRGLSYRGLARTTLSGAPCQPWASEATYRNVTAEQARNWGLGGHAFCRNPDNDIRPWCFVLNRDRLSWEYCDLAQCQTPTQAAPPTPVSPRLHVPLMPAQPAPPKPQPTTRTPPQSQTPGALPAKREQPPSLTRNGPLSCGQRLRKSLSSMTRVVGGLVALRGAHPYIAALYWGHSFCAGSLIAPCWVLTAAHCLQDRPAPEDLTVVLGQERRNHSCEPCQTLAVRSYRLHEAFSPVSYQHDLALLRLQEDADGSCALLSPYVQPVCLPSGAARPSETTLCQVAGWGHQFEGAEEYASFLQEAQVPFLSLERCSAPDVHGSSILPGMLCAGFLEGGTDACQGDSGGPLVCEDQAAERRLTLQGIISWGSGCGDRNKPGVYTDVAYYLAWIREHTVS
The experiment in a line: Inhibition of factor 12a (unknown origin) at IC50 using kallikrein chromogenic substrate preincubated for 1 min followed by chromogenic substrate addition and measured for 2 mins. Particulars: time 3.0 min.

The target in assay [17] is Coagulation factor X (Homo sapiens) (UniProt P00742). Put plainly: Inhibition of factor 10a (unknown origin) at IC50 preincubated for 1 min followed by chromogenic substrate addition and measured for 2 mins in presence of AT-III. As to conditions: time 3.0 min.
Assay [18] deals with Plasma. Put plainly: Anticoagulation activity in human plasma assessed as drug level causing 20 times doubling of APTT preincubated for 2 mins followed by APTT reagent and measured after 3 mins by coagulometric method relative to dHG-5. Type of assay: functional. As to conditions: time 5 min.
In assay [19] the target is Coagulation factor XI (Homo sapiens) (UniProt P03951). The experiment in a line: Inhibition of factor 11a (unknown origin) at IC50 using S-2366 as substrate preincubated for 1 min followed by chromogenic substrate addition and measured for 2 mins. Particulars: time 3.0 min.
Sequence of Coagulation factor XI (Homo sapiens) (P03951 19-387 limits assumed): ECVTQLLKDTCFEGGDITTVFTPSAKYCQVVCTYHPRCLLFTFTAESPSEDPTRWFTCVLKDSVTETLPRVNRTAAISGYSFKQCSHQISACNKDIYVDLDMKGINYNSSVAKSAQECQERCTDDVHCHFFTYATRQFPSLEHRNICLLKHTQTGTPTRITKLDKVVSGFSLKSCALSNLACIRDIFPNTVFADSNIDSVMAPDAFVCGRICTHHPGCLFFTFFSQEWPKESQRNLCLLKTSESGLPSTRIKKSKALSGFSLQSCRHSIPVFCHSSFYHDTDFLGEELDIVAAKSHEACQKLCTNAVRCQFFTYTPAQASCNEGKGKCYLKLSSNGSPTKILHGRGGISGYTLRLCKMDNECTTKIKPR
Sequence of Coagulation factor XI (Homo sapiens) (P03951 388-625 limits assumed): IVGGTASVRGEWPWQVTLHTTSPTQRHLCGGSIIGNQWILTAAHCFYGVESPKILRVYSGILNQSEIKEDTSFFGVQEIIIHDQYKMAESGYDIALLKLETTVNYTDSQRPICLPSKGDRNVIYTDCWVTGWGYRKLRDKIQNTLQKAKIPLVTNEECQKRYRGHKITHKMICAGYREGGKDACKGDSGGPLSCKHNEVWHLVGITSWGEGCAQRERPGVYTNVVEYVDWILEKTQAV
Assay [20] deals with T4, Coagulation factor XII (Homo sapiens). The experiment in a line: Inhibition of factor 12a (unknown origin) at IC50 using kallikrein chromogenic substrate preincubated for 1 min followed by chromogenic substrate addition and measured for 2 mins in presence of AT-III. As to conditions: time 3.0 min.
Assay [21] has as its target Coagulation factor XI (Homo sapiens) (UniProt P03951). Put plainly: Inhibition of factor 11a (unknown origin) at IC50 using S-2366 as substrate preincubated for 1 min followed by chromogenic substrate addition and measured for 2 mins in presence of AT-III. Particulars: time 3.0 min.

Activity calls are given as the source filed them. No cut-off for these calls is given here.

T1 sequence (P00740 47-191 limits assumed): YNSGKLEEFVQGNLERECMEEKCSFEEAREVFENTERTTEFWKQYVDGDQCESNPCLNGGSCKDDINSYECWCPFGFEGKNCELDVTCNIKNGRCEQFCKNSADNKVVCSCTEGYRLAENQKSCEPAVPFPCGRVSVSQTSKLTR
T1 sequence (P00740 227-461 limits assumed): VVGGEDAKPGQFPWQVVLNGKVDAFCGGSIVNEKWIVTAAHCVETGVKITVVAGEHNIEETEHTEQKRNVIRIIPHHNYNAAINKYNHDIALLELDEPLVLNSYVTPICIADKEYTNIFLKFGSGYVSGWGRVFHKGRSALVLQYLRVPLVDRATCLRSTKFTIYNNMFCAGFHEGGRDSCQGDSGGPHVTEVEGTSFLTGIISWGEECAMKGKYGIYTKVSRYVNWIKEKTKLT

With `CC(=O)N[C@H]1[C@H](O[C@@H]([C@H](O[C@@H]2O[C@@H](C)[C@@H](OS(=O)(=O)[O-])[C@@H](OS(=O)(=O)O)[C@@H]2O)[C@@H](O)CO)[C@H](O)C(=O)[O-])O[C@H](COS(=O)(=O)[O-])[C@H](OS(=O)(=O)[O-])[C@@H]1O[C@@H]1O[C@H](C(=O)[O-])[C@@H](O[C@@H]2O[C@H](COS(=O)(=O)[O-])[C@H](OS(=O)(=O)[O-])[C@H](O[C@@H]3O[C@H](C(=O)[O-])[C@@H](O[C@@H]4O[C@H](COS(=O)(=O)[O-])[C@H](OS(=O)(=O)[O-])[C@H](O[C@@H]5O[C@H](C(=O)[O-])[C@@H](O[C@@H]6O[C@H](COS(=O)(=O)[O-])[C@H](OS(=O)(=O)[O-])[C@H](O[C@@H]7O[C@H](C(=O)[O-])[C@@H](O[C@@H]8O[C@H](COS(=O)(=O)[O-])[C@H](OS(=O)(=O)[O-])[C@H](O[C@@H]9O[C@H](C(=O)[O-])[C@@H](O[C@@H]%10O[C@H](COS(=O)(=O)[O-])[C@H](OS(=O)(=O)[O-])[C@H](O[C@@H]%11O[C@H](C(=O)[O-])[C@@H](O[C@@H]%12O[C@H](COS(=O)(=O)[O-])[C@H](OS(=O)(=O)[O-])[C@H](O[C@@H]%13OC(C(=O)O)=C[C@H](O[C@@H]%14O[C@@H](C)[C@@H](OS(=O)(=O)[O-])[C@@H](OS(=O)(=O)O)[C@@H]%14O)[C@H]%13O)[C@H]%12NC(C)=O)[C@H](O[C@@H]%12O[C@@H](C)[C@@H](OS(=O)(=O)[O-])[C@@H](OS(=O)(=O)O)[C@@H]%12O)[C@H]%11O)[C@H]%10NC(C)=O)[C@H](O[C@@H]%10O[C@@H](C)[C@@H](OS(=O)(=O)[O-])[C@@H](OS(=O)(=O)O)[C@@H]%10O)[C@H]9O)[C@H]8NC(C)=O)[C@H](O[C@@H]8O[C@@H](C)[C@@H](OS(=O)(=O)[O-])[C@@H](OS(=O)(=O)O)[C@@H]8O)[C@H]7O)[C@H]6NC(C)=O)[C@H](O[C@@H]6O[C@@H](C)[C@@H](OS(=O)(=O)[O-])[C@@H](OS(=O)(=O)O)[C@@H]6O)[C@H]5O)[C@H]4NC(C)=O)[C@H](O[C@@H]4O[C@@H](C)[C@@H](OS(=O)(=O)[O-])[C@@H](OS(=O)(=O)O)[C@@H]4O)[C@H]3O)[C@H]2NC(C)=O)[C@H](O[C@@H]2O[C@@H](C)[C@@H](OS(=O)(=O)[O-])[C@@H](OS(=O)(=O)O)[C@@H]2O)[C@H]1O.[Na+].[Na+].[Na+].[Na+].[Na+].[Na+].[Na+].[Na+].[Na+].[Na+].[Na+].[Na+].[Na+].[Na+].[Na+].[Na+].[Na+].[Na+].[Na+].[Na+].[Na+].[Na+].[Na+].[Na+].[Na+].[Na+].[Na+].[Na+].[Na+]`, the Ratio stood at 11.7 U at Coagulation factor IX [1]; 25.4 U in assay [4]; 384 U in [7]; 16.12 U with Rattus norvegicus [8]; 177 U on Coagulation factor IX [9]; 244.26 U in the assay with Rattus norvegicus [12]. Moreover, the figures for the Ratio in the assay with Plasma [15] and in the assay on Plasma [18] were 15.39 U and 232.47 U, respectively. The inhibition entry in assay [2] and in assay [11] was “Active” throughout. The inhibition result in [3], in assay [5], in assay [6], in assay [10], in assay [13] and in assay [16] was “inactive” each time. The inhibition result in assay [17], in assay [19], in [20] and in assay [21] was “inactive” each time. In [14], the “inhibition (active/not active)” value was “inactive”.

(Values after ChEMBL document CHEMBL4765450, “The components and activities analysis of a novel anticoagulant candidate dHG-5” (Eur J Med Chem, 2020).)
